The values below come from patent publication US20040136931A1, “Photoprotective cosmetic compositions comprising 3-(2-azacycloalkylidene)-1,3-dihydroindol-2-one compounds” (SOCIETE L'OREAL S.A., priority 2002, published 2004).

The nature of data set [1]: Sun screening properties (UV absorption). The format is physicochemical. The settings on record: 92.8% acetonitrile+7.2% DMSO. From the text:
This compound has the following sun screening properties:
λmax=350 nm (92.8% acetonitrile+7.2% DMSO)

The nature of data set [2]: Photostability: irradiation of an oily film in a solar simulator. The format is physicochemical. The settings on record: one hour of irradiation in a solar simulator (UVA=18.6 mW/cm^2, UVB=0.6 mW/cm^2); oily film containing 0.5% of the compound.
The nature of data set [3]: RPE (Resonance Paramagnetic Electronic) study of pro-oxidizing activity under irradiation. Conditions: formulated medium, irradiation under the same conditions as the photostability test (solar simulator).

Regarding `CCN1C(=O)/C(=C2/CCCN2)c2ccccc21` [Compound 2, 1-Ethyl-3-pyrrolidin-2-ylidine-1,3-dihydroindol-2-one], in data set [1], the λmax is given as 326 nm. Further, the εmax in data set [1] (at λmax) is on record as 22600 1.mol^−1.cm^−1.

Regarding `CCN1C(=O)/C(=C2/CCCN2C)c2ccccc21` [Compound 1, 1-Ethyl-3-(1-methylpyrrolidin-2-ylidene)-1,3-dihydroindol-2-one], in data set [1], the λmax came to 350 nm. In addition, in data set [1] (at λmax), the E1% was 722 and the εmax is 17501 1.mol^−1.cm^−1. Besides, the “residual level of the compound after irradiation” value in data set [2] is 92%. Moreover, the pro-oxidizing activity result in data set [3] is “does not manifest any pro-oxidizing activity”.

For the compound `O=C1Nc2ccccc2/C1=C1\CCCN1` [Compound 3, 3-Pyrrolidin-2-ylidene-1,3-dihydroindol-2-one], in data set [1], the λmax is 328 nm. Besides, the εmax in data set [1] (at λmax) is reported as 8100 1.mol^−1.cm^−1.
